Results reported in patent USRE29675E, “O-(Halophenylcarbamyl)-N-(halophenyl) glycolamides” (Stauffer Chemical Company, priority 1977, dated 1978).
Converted amounts (≈) assume the structure as drawn.

Experiments:
Assay type in all cases: cell-based
[1] = tested on: Scenedesmus obliquus; test: In Vitro Agar Screening Test, algae; details: Tetradesmus obliquus, modified Jack Meyers agar, room temperature, artificial light, indicates partial control at this concentration, read-out: Minimum Inhibitory Concentration
Method: (§1) This test measures the bactericidal, fungicidal and algaecidal properties of a compound when in contact with growing bacteria, fungi or algae in an artifical medium. The test is conducted by adding 20 ml. portions of a suitable warm sterile agar solution into 20 × 100 mm. Petri dishes. Then, the test compound, in 0.5 percent acetone solution, is added to the Petri dishes at levels of 1, 10 and 50 μg/ml. and mixed with the warm mobile agar solution. The treated agar mixture is then allowed to come to room temperature and solidify. Cells of the chosen organism are streaked on the surface of the solidified agar and are then incubated for such lengths of time that untreated samples containing no toxicant show luxurious growth typical of the particular organism. This time varies from 24 hours to one week depending on the particular organism. The fungi are incubated at 30° C. and the bacteria are incubated at 37° C. The algae are incubated at room temperature under artificial light. Nutrient agar is used as the medium in this test for the bacteria. Potato dextrose agar is used as the medium for the fungi with the exception of Trichophyton mentagrophytes for which Emmons agar is used. A modified Jack Meyers agar is used for the growth of the algae.
(§2) The extent of growth is noted at the end of the incubation period.
(§3) Representative organisms used in this test are as follows: […]

[2] = tested on: Aspergillus oryzae; test: In Vitro Agar Screening Test, fungi; details: potato dextrose agar, 30° C., read-out: Minimum Inhibitory Concentration
Method: as §1, §2, §3

[3] = tested on: Desulfovibrio desulfuricans; test: Sulfate Reducing Bacteria In Vitro Test; details: Sulfate API broth with tryptone, anaerobic, room temperature, 3 to 5 days, unit from method text, read-out: minimum inhibitory concentration necessary to control the organism
Method: This test measures the bactericidal properties of a compound when in contact with a sulfate reducing bacteria, specifically Desulfovibrio desulfuricans. The test is conducted by dissolving the test compound in acetone to give an 0.5 percent solution. This toxicant is added to vials containing sterile Sulfate API broth with tryptone under anaerobic conditions at such levels to give final toxicant concentrations of 1, 5, 10 and 50 μg/ml. of solution. An inoculant solution of 0.5 ml of the growing organism, Desulfovibrio desulfuricans, is added to the vials followed by sufficient sterile distilled water to give a total of 10 ml. of solution in the vials. […] The following is a summary of the minimum inhibitory concentration necessary to control the organism.

[4] = tested on: Trichophyton mentagrophytes; test: In Vitro Agar Screening Test, fungi; details: Emmons agar, 30° C., indicates partial control at this concentration, read-out: Minimum Inhibitory Concentration
Method: as §1, §2, §3

[5] = tested on: Brevibacterium ammoniagenes; test: In Vitro Agar Screening Test, bacteria; details: Corynebacterium ammoniagenes, nutrient agar, 37° C., read-out: Minimum Inhibitory Concentration
Method: as §1, §2, §3

[6] = tested on: stapylococcus aureus; test: In Vitro Vial Test (bactericidal, nutrient broth); details: 168 h, sealed vial incubated one week, read-out: Concentration (PPM) Which Inhibited Growth
Method: The following test illustrates utility of the compounds in controlling bacteria. This test measures the bactericidal properties of a compound when in contact with a growing bacterium. The test is conducted by partially filling a 1-ounce vial with nutrient broth. Next the test compound is added to the vial at a certain concentration, expressed in parts per million, and mixed with the broth. A water suspension of cells of stapylococcus aureus is added. The vial is then sealed and incubated for one week.

[7] = tested on: Enterobacter aerogenes; test: In Vitro Agar Screening Test, bacteria; details: Klebsiella aerogenes, nutrient agar, 37° C., indicates partial control at this concentration, read-out: Minimum Inhibitory Concentration
Method: as §1, §2, §3

[8] = tested on: Staphylococcus aureus; test: In Vitro Agar Screening Test, bacteria; details: Stapylococcus aureus, nutrient agar, 37° C., read-out: Minimum Inhibitory Concentration
Method: as §1, §2, §3

[9] = tested on: Bacillus cereus; test: In Vitro Agar Screening Test, bacteria; details: nutrient agar, 37° C., indicates partial control at this concentration, read-out: Minimum Inhibitory Concentration
Method: as §1, §2, §3

Row | Compound | MIC [2] [µg/mL] | MIC [3] [µg/mL] | MIC [5] [µg/mL] | MIC [6] [µg/mL] | MIC [8] [µg/mL] | other results
1 | O=C(COC(=O)Nc1ccc(Cl)cc1)Nc1ccc(Cl)c(Cl)c1 [Compound 1] | 5 (≈ 13.4 µM) | 50 (≈ 134 µM) | 5 (≈ 13.4 µM) | 0.25 (≈ 0.669 µM) | 1 (≈ 2.68 µM) | MIC [1]: 1 µg/mL (≈ 2.68 µM); MIC [4]: 5 µg/mL (≈ 13.4 µM); MIC [7]: 1 µg/mL (≈ 2.68 µM)
2 | O=C(COC(=O)Nc1cccc(Cl)c1)Nc1ccc(Cl)c(Cl)c1 [Compound 2, O-(3-Chlorophenylcarbamyl)-N-(3,4-dichlorophenyl)-glycolamide] | > 50 | 10 (≈ 26.8 µM) | 5 (≈ 13.4 µM) | 0.25 (≈ 0.669 µM) | 1 (≈ 2.68 µM) | MIC [9]: 1 µg/mL (≈ 2.68 µM)
3 | O=C(COC(=O)Nc1cccc(Cl)c1)Nc1ccc(Cl)cc1 [Compound 3] |  |  |  | 5 (≈ 14.7 µM) |  | 
4 | O=C(COC(=O)Nc1ccc(Cl)c(Cl)c1)Nc1ccc(Cl)cc1 [Compound 4] |  |  |  | 1 (≈ 2.68 µM) |  | 
5 | O=C(COC(=O)Nc1ccc(Cl)c(Cl)c1)Nc1ccc(Cl)c(Cl)c1 [Compound 5] |  |  |  | 1 (≈ 2.45 µM) |  | 
6 | O=C(COC(=O)Nc1cccc(Br)c1)Nc1ccc(Cl)c(Cl)c1 [Compound 6] |  |  |  | 0.5 (≈ 1.2 µM) |  | 
